Experimental data reported in patent US9827312B2, “Method for carrying therapeutic substances into cells” (MAGFORCE AG, priority 2005, dated 2017).

What was measured:
Conditions in all cases: procedure of example 2
[1] = system: neuroglioma cell line H4; experiment: Increase in the activity of cytostatics with nanoparticles (Table 1), H4; format: cell-based
Protocol: (§1) The experiments in vitro were carried out with the cell lines BT20 (breast carcinoma) and WiDr (colon carcinoma). The tumor cells were taken from tumor tissue of a patient and cultivated as described in DE 199 12 798 C1. 2×10^6 cells, respectively, were prepared in a 75 cm^3 cell culture bottle with 25 ml of cell culture medium (RPMI+10% FBS+1.2 ml of pyruvate for WiDr cells, or respectively BME+10% FBS+pyruvate+5 ml of non-essential amino acids+5 ml glutamine for BT20 cells) for testing the efficacy of the cefamandole/nanoparticle mixture. 136 μl of magnetic fluid MFL AS M01 (iron oxide nanoparticle coated with polycondensed N-(2-aminoethyl)-3-(trimethoxysilyl)propylamine, manufacturer: MagForce Nanotechnologies GmbH, Berlin, Germany) (cFe=2 mol/l) and 390 μl of cefamandole solution (stock solution 1 mg/ml in 0.9% NaCl) were added to said cell suspension.
(§2) Corresponding to the experiment procedure according to example 2, the following […] were tested in vitro with the active ingredients listed in table 1: a) glioblastoma human cell line RUSIRS 1; b) breast carcinoma cell lines BT20; c) colon carcinoma cell line WiDR; d) bronchial carcinoma cells NSCLC, e) rectal carcinoma cells and f) prostate carcinoma cell line DU 145.
(§3) In all cases, an increased activity of the cytostatic could be observed. The increase in activity is indicated in parentheses after the respective cytostatic, wherein (+) means an increase of about 5% to 80% and (++) means an increase of 80% to 500%.

[2] = system: glioblastoma human cell line RUSIRS1; experiment: Increase in the activity of cytostatics with nanoparticles (Table 1), RUSIRS1; format: cell-based
Protocol: as §1, §2, §3

[3] = system: prostate carcinoma cell line DU 145; experiment: Increase in the activity of cytostatics with nanoparticles (Table 1), DU 145; format: cell-based
Protocol: as §1, §2, §3

[4] = system: bronchial carcinoma cells NSCLC; experiment: Increase in the activity of cytostatics with nanoparticles (Table 1), NSCLC; format: cell-based
Protocol: as §1, §2, §3

[5] = system: breast carcinoma cell lines BT20; experiment: Increase in the activity of cytostatics with nanoparticles (Table 1), BT20; format: cell-based, human
Protocol: as §1, §2, §3

[6] = system: rectal carcinoma cells; experiment: Increase in the activity of cytostatics with nanoparticles (Table 1), rectal carcinoma; format: cell-based
Protocol: as §1, §2, §3

[7] = system: colon carcinoma cell line WiDr; experiment: Increase in the activity of cytostatics with nanoparticles (Table 1), WiDr; format: cell-based, human
Protocol: as §1, §2, §3

Row | Structure (SMILES) | increase in the activity of cytostatics [1] | increase in the activity of cytostatics [2] | increase in the activity of cytostatics [3] | increase in the activity of cytostatics [4] | increase in the activity of cytostatics [5] | increase in the activity of cytostatics [6] | increase in the activity of cytostatics [7]
1 | CC[C@]1(O)C[C@H]2CN(CCc3c([nH]c4ccccc34)[C@@](C(=O)OC)(c3cc4c(cc3OC)N(C=O)[C@H]3[C@@](O)(C(=O)OC)[C@H](OC(C)=O)[C@]5(CC)C=CCN6CC[C@]43[C@@H]65)C2)C1 [vincristine] | (+) ((+) means an increase of about 5% to 80%) | (+) ((+) means an increase of about 5% to 80%) | (+) ((+) means an increase of about 5% to 80%) | (++) ((++) means an increase of 80% to 500%) | (++) ((++) means an increase of 80% to 500%) | (++) ((++) means an increase of 80% to 500%) | (+) ((+) means an increase of about 5% to 80%)
2 | CC(C)Cc1ccc(C(C)C(=O)O)cc1 (stereo not shown) [ibuprofen] | (+) ((+) means an increase of about 5% to 80%) | (+) ((+) means an increase of about 5% to 80%) | (+) ((+) means an increase of about 5% to 80%) | (+) ((+) means an increase of about 5% to 80%) | (+) ((+) means an increase of about 5% to 80%) | (+) ((+) means an increase of about 5% to 80%) | (++) ((++) means an increase of 80% to 500%)
3 | O=C(O)CCCc1ccc(N(CCCl)CCCl)cc1 [chlorambucil] | (++) ((++) means an increase of 80% to 500%) | (+) ((+) means an increase of about 5% to 80%) | (+) ((+) means an increase of about 5% to 80%) | (+) ((+) means an increase of about 5% to 80%) | (+) ((+) means an increase of about 5% to 80%) | (+) ((+) means an increase of about 5% to 80%) | (++) ((++) means an increase of 80% to 500%)
4 | CC(=O)[C@]1(O)Cc2c(O)c3c(c(O)c2[C@@H](O[C@H]2C[C@H](N)[C@H](O)[C@H](C)O2)C1)C(=O)c1ccccc1C3=O [idarubicin] | (+) ((+) means an increase of about 5% to 80%) | (++) ((++) means an increase of 80% to 500%) | (+) ((+) means an increase of about 5% to 80%) | (++) ((++) means an increase of 80% to 500%) | (+) ((+) means an increase of about 5% to 80%) | (+) ((+) means an increase of about 5% to 80%) | (+) ((+) means an increase of about 5% to 80%)
5 | Nc1nc2c(ncn2COCCO)c(=O)[nH]1 [acyclovir] | (+) ((+) means an increase of about 5% to 80%) | (+) ((+) means an increase of about 5% to 80%) | (+) ((+) means an increase of about 5% to 80%) | (+) ((+) means an increase of about 5% to 80%) | (+) ((+) means an increase of about 5% to 80%) | (++) ((++) means an increase of 80% to 500%) | (+) ((+) means an increase of about 5% to 80%)
6 | C=CC[C@@H]1/C=C(\C)C[C@H](C)C[C@H](OC)[C@H]2O[C@@](O)(C(=O)C(=O)N3CCCC[C@H]3C(=O)O[C@H](/C(C)=C/[C@@H]3CC[C@@H](O)[C@H](OC)C3)[C@H](C)[C@@H](O)CC1=O)[C@H](C)C[C@@H]2OC [tacrolimus] | (++) ((++) means an increase of 80% to 500%) | (+) ((+) means an increase of about 5% to 80%) | (+) ((+) means an increase of about 5% to 80%) | (+) ((+) means an increase of about 5% to 80%) | (+) ((+) means an increase of about 5% to 80%) | (+) ((+) means an increase of about 5% to 80%) | –
7 | CC[C@@H]1/C=C(\C)C[C@H](C)C[C@H](OC)[C@H]2O[C@@](O)(C(=O)C(=O)N3CCCC[C@H]3C(=O)O[C@H](/C(C)=C/[C@@H]3CC[C@@H](O)[C@H](OC)C3)[C@H](C)[C@@H](O)CC1=O)[C@H](C)C[C@@H]2OC [ascomycin] | – | (++) ((++) means an increase of 80% to 500%) | (+) ((+) means an increase of about 5% to 80%) | (+) ((+) means an increase of about 5% to 80%) | (+) ((+) means an increase of about 5% to 80%) | (+) ((+) means an increase of about 5% to 80%) | (+) ((+) means an increase of about 5% to 80%)
8 | O=C(O)Cc1ccccc1Nc1c(Cl)cccc1Cl [diclofenac] | (+) ((+) means an increase of about 5% to 80%) | (+) ((+) means an increase of about 5% to 80%) | (+) ((+) means an increase of about 5% to 80%) | (+) ((+) means an increase of about 5% to 80%) | – | (++) ((++) means an increase of 80% to 500%) | (+) ((+) means an increase of about 5% to 80%)
9 | CN1CCCC(n2nc(Cc3ccc(Cl)cc3)c3ccccc3c2=O)CC1 (stereo not shown) [azelastine] | (+) ((+) means an increase of about 5% to 80%) | (+) ((+) means an increase of about 5% to 80%) | (+) ((+) means an increase of about 5% to 80%) | – | (+) ((+) means an increase of about 5% to 80%) | (+) ((+) means an increase of about 5% to 80%) | –
10 | Cn1c(CCCC(=O)O)nc2cc(N(CCCl)CCCl)ccc21 [bendamustine] | – | (+) ((+) means an increase of about 5% to 80%) | (+) ((+) means an increase of about 5% to 80%) | (+) ((+) means an increase of about 5% to 80%) | (+) ((+) means an increase of about 5% to 80%) | – | –
11 | Nc1nc(Cl)nc2c1ncn2[C@H]1C[C@H](O)[C@@H](CO)O1 [cladribine] | (+) ((+) means an increase of about 5% to 80%) | (+) ((+) means an increase of about 5% to 80%) | (+) ((+) means an increase of about 5% to 80%) | (++) ((++) means an increase of 80% to 500%) | (+) ((+) means an increase of about 5% to 80%) | – | (++) ((++) means an increase of 80% to 500%)
12 | CS(=O)(=O)OCCCCOS(C)(=O)=O [busulfan] | (+) ((+) means an increase of about 5% to 80%) | (+) ((+) means an increase of about 5% to 80%) | (+) ((+) means an increase of about 5% to 80%) | (++) ((++) means an increase of 80% to 500%) | – | – | (+) ((+) means an increase of about 5% to 80%)
13 | CC/C(=C(\c1ccccc1)c1ccc(OCCN(C)C)cc1)c1ccccc1 [tamoxifen] | (+) ((+) means an increase of about 5% to 80%) | (+) ((+) means an increase of about 5% to 80%) | (+) ((+) means an increase of about 5% to 80%) | (+) ((+) means an increase of about 5% to 80%) | (+) ((+) means an increase of about 5% to 80%) | – | (++) ((++) means an increase of 80% to 500%)
14 | COC(=O)C1=C(C)NC(C)=C(C(=O)OC)C1c1ccccc1[N+](=O)[O-] [nifedipine] | (+) ((+) means an increase of about 5% to 80%) | (+) ((+) means an increase of about 5% to 80%) | (+) ((+) means an increase of about 5% to 80%) | (+) ((+) means an increase of about 5% to 80%) | (+) ((+) means an increase of about 5% to 80%) | – | (+) ((+) means an increase of about 5% to 80%)
